Patent publication US9328099B2, “Cyanomethylpyrazole carboxamides as janus kinase inhibitors” (Merck Sharp & Dohme Corp., priority 2011, dated 2016)
Read-outs that look alike come from different tables or passages of the source.

Experiments:
JAK1 = JAK1 (Homo sapiens (Human), UniProt P23458); test: Jak Biochemical HTRF Assay, JAK1; details: read-out: JAK1 IC50
Source text: (§1) Jak Biochemical HTRF Assay Protocol
(§2) Subsequent reagent additions employed an Agilent Bravo.

JAK2 = JAK2 (Homo sapiens (Human), UniProt O60674); test: Jak Biochemical HTRF Assay, JAK2
Source text: as §1, §2

[1] = HTRF biochemical assay, GST-tagged catalytic domain, top concentration tested […]

Sequence of JAK2 (O60674 849-1124): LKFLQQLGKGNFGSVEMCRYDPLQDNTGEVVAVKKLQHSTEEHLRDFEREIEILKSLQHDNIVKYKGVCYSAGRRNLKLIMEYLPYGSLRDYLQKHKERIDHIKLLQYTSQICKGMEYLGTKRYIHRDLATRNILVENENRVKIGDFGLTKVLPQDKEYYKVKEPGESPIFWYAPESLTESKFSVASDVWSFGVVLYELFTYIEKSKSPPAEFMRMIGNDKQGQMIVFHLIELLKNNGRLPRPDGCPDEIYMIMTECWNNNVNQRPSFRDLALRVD
Sequence of JAK1 (P23458 875-1153): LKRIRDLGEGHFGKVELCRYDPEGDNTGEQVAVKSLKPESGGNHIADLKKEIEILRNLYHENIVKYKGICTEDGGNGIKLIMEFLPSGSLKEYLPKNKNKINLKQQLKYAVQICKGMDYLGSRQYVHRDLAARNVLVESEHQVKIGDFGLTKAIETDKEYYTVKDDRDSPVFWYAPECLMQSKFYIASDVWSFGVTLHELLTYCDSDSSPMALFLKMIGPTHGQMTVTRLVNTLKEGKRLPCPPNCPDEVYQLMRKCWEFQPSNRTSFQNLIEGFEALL

## N#CCC1(n2cc(C(N)=O)c(Nc3ccnc(F)c3)n2)CCC(NCc2ccccc2F)CC1 (stereo not drawn) [Example 41-21, Cis or trans 1-{1-(cyanomethyl)-4-[(2-fluorobenzyl)amino]cyclohexyl}-3-[(2-fluoropyridin-4-yl)amino]-1H-pyrazole-4-carboxamide]
JAK1; [1]
  IC50: 11 nM
JAK2; [1]
  IC50: 308 nM

## N#CCC1(n2cc(C(N)=O)c(Nc3ccccc3)n2)CN(C(=O)Nc2cccc(F)c2)C1 [Example 38-1, 1-{3-(Cyanomethyl)-1-[(3-fluorophenyl)carbamoyl]azetidin-3-yl}-3-(phenylamino)-1H pyrazole-4-carboxamide]
JAK1; [1]
  IC50: 3 nM
JAK2; [1]
  IC50: 68 nM

## CC(C)(O)C(=O)N1CCC(CC#N)(n2cc(C(N)=O)c(Nc3ccnc(F)c3)n2)CC1 [Example 34-43, 1-[4-(cyanomethyl)-1-(2-hydroxy-2-methylpropanoyl)piperidin-4-yl]-3-[(2-fluoropyridin-4-yl)amino]-1H-pyrazole-4-carboxamide]
JAK1; [1]
  IC50: 11 nM
JAK2; [1]
  IC50: 234 nM

## N#CCC1(n2cc(C(N)=O)c(Nc3ccnc(F)c3)n2)CCN(Cc2cccc(O)c2)CC1 [Example 22-70, 1-[4-(cyanomethyl)-1-(3-hydroxybenzyl)piperidin-4-yl]-3-[(2-fluoropyridin-4-yl)amino]-1H-pyrazole-4-carboxamide]
JAK1; [1]
  IC50: 0.04 nM
JAK2; [1]
  IC50: 1 nM

## CC(C)(C)OC(=O)N1CCC(CC#N)(n2cc(C(N)=O)c(Nc3cnccn3)n2)CC1 [Example 13-7, tert-butyl 4-(4-carbamoyl-3-(pyrazine-2-ylamino)-1H-pyrazol-1-yl)-4-(cyanomethyl)piperidine-1-carboxylate]
JAK1; [1]
  IC50: 8 nM
JAK2; [1]
  IC50: 210 nM

## CN1CCC(COC(=O)N2CC(CC#N)(n3cc(C(N)=O)c(Nc4ccccc4)n3)C2)CC1 [Example 30-73, (1-methylpiperidin-4-yl)methyl-3-[4-carbamoyl-3-(phenylamino)-1H-pyrazol-1-yl]-3-(cyanomethyl)azetidine-1-carboxylate]
JAK1; [1]
  IC50: 130 nM
JAK2; [1]
  IC50: 1480 nM

## N#CCC1(n2cc(C(N)=O)c(Nc3ccc(F)cc3)n2)CCN(c2cncc(C(F)(F)F)c2)CC1 [Example 3-8, 1-{4-(cyanomethyl)-1-[5-(trifluoromethyl)pyridin-3-yl]piperidin-4-yl}-3-[(4-fluorophenyl)amino]-1H-pyrazole-4-carboxamide]
JAK1; [1]
  IC50: 1 nM
JAK2; [1]
  IC50: 54 nM

## N#CCC1(n2cc(C(N)=O)c(Nc3ccnc(F)c3)n2)CCN(Cc2cnccn2)CC1 [Example 22-14, 1-[4-(cyanomethyl)-1-(pyrazin-2-ylmethyl)piperidin-4-yl]-3-[(2-fluoropyridin-4-yl)amino]-1H-pyrazole-4-carboxamide]
JAK1; [1]
  IC50: 0.6 nM
JAK2; [1]
  IC50: 28 nM

## CC(C)(C)OC(=O)N1CC[C@](CC#N)(n2cc(C(N)=O)c(Nc3ccc(F)cc3)n2)[C@@H](F)C1 (racemic) [Example 6-3, tert-butyl (3S,4R and 3R,4S)-4-{4-carbamoyl-3-[(4-fluorophenyl)amino]-1H-pyrazol-1-yl}-4-(cyanomethyl)-3-fluoropiperidine-1-carboxylate]
JAK1; [1]
  IC50: 1 nM
JAK2; [1]
  IC50: 25 nM

## N#CCC1(n2cc(C(N)=O)c(Nc3ccnc(F)c3)n2)CCN(Cc2nc3ccccc3[nH]2)CC1 [Example 22-41, 1-[1-(1H-benzimidazol-2-ylmethyl)-4-(cyanomethyl)piperidin-4-yl]-3-[(2-fluoropyridin-4-yl)amino]-1H-pyrazole-4-carboxamide]
JAK1; [1]
  IC50: 18 nM
JAK2; [1]
  IC50: 641 nM

## C[Si](C)(C)COC(=O)N1CCC(CC#N)(n2cc(C(N)=O)c(Nc3ccc(F)cc3)n2)CC1 [Example 30-10, (trimethylsilyl)methyl 4-(4-carbamoyl-3-(4-fluorophenylamino)-1H-pyrazol-1-yl)-4-(cyanomethyl)piperidine-1-carboxylate]
JAK1
  IC50: 21 nM
JAK2
  IC50: 745 nM

## N#CCC1(n2cc(C(N)=O)c(Nc3ccc(S(=O)(=O)C(F)F)cc3)n2)CCC(NC2CCCCC2)CC1 (stereo not drawn) [Example 40-57, Cis or trans 1-[1-(cyanomethyl)-4-(cyclohexylamino)cyclohexyl]-3-({4-[(difluoromethyl)sulfonyl]phenyl}amino)-1H-pyrazole-4-carboxamide]
JAK1
  IC50: 415 nM
JAK2; [1]
  IC50: > 1500 nM

## N#CCC1(n2cc(C(N)=O)c(Nc3ccc(F)cc3)n2)CCC(N2CCc3ccccc32)CC1 (stereo not drawn) [Example 40-21, Cis or trans 1-[1-(cyanomethyl)-4-(2,3-dihydro-1H-indol-1-yl)cyclohexyl]-3-[(4-fluorophenyl)amino]-1H-pyrazole-4-carboxamide]
JAK1; [1]
  IC50: 171 nM
JAK2; [1]
  IC50: > 1500 nM

## Cn1cc(C(=O)N2CCC(CC#N)(n3cc(C(N)=O)c(Nc4ccnc(F)c4)n3)CC2)cn1 [Example 34-44, 1-{4-(cyanomethyl)-1-[(1-methyl-1H-pyrazol-4-yl)carbonyl]piperidin-4-yl}-3-[(2-fluoropyridin-4-yl)amino]-1H-pyrazole-4-carboxamide]
JAK1; [1]
  IC50: 2 nM
JAK2; [1]
  IC50: 63 nM

## N#CCC1(n2cc(C(N)=O)c(Nc3ccc(F)cc3)n2)CCC(NC2CCOCC2)CC1 (stereo not drawn) [Example 40-5, Cis or trans 1-[1-(cyanomethyl)-4-(tetrahydro-2H-pyran-4-ylamino)cyclohexyl]-3-[(4-fluorophenyl)amino]-1H-pyrazole-4-carboxamide]
JAK1; [1]
  IC50: 449 nM
JAK2; [1]
  IC50: > 1500 nM

## N#CCC1(n2cc(C(N)=O)c(Nc3ccccc3)n2)COC1 [Example 2-20, 1-[3-(cyanomethyl)oxetan-3-yl]-3-(phenylamino)-1H-pyrazole-4-carboxamide]
JAK1; [1]
  IC50: 33 nM
JAK2; [1]
  IC50: 241 nM

## N#CCC1(n2cc(C(N)=O)c(Nc3ccccc3)n2)CCN(C(=O)OC2CCOC2)CC1 (stereo not shown) [Example 30-36, 4-carbamoyl-1-[4-(cyanomethyl)-1-{[(3R and 3S)-tetrahydrofuran-3-yloxy]carbonyl}piperidin-4-yl]-3-(phenylamino)-1H-pyrazol-2-ium]
JAK1; [1]
  IC50: 1 nM
JAK2; [1]
  IC50: 40 nM

## CS(=O)(=O)c1ccc(Nc2nn(C3(CC#N)CN(C(=O)OC4CCOCC4)C3)cc2C(N)=O)cc1 [Example 30-76, tetrahydro-2H-pyran-4-yl 3-(4-carbamoyl-3-{[4-(methylsulfonyl)phenyl]amino}-1H-pyrazol-1-yl)-3-(cyanomethyl)azetidine-1-carboxylate]
JAK1; [1]
  IC50: 74 nM
JAK2; [1]
  IC50: 285 nM

## COc1ccc(CC(=O)N2CCC(CC#N)(n3cc(C(N)=O)c(Nc4ccccc4)n3)CC2)cc1 [Example 34-24, 1-{4-(cyanomethyl)-1-[(4-methoxyphenyl)acetyl]piperidin-4-yl}-3-(phenylamino)-1H-pyrazole-4-carboxamide]
JAK1; [1]
  IC50: 7 nM
JAK2; [1]
  IC50: 84 nM

## N#CCC1(n2cc(C(N)=O)c(Nc3ccccc3)n2)CCN(C(=O)c2cccc(N3CCOCC3)c2)CC1 [Example 34-28, 1-(4-(cyanomethyl)-1-[(3-morpholin-4-ylphenyl)carbonyl]piperidin-4-yl}-3-(phenylamino)-1H-pyrazole-4-carboxamide]
JAK1; [1]
  IC50: 92 nM
JAK2; [1]
  IC50: 1050 nM

## Cc1cc(CN2CCC(CC#N)(n3cc(C(N)=O)c(Nc4ccnc(F)c4)n3)CC2)no1 [Example 22-27, 1-{4-(cyanomethyl)-1-[(5-methylisoxazol-3-yl)methyl]piperidin-4-yl}-3-[(2-fluoropyridin-4-yl)amino]-1H-pyrazole-4-carboxamide]
JAK1; [1]
  IC50: 6 nM
JAK2; [1]
  IC50: 157 nM

## N#CCC1(n2cc(C(N)=O)c(Nc3ccnc(F)c3)n2)CCC(NCc2ccccc2F)CC1 (stereo not drawn) [Example 41-11, Cis or trans 1-{1-(cyanomethyl)-4-[(2-fluorobenzyl)amino]cyclohexyl}-3-[(2-fluoropyridin-4-yl)amino]-1H-pyrazole-4-carboxamide]
JAK1; [1]
  IC50: 0.08 nM
JAK2; [1]
  IC50: 2 nM

## N#CCC1(n2cc(C(N)=O)c(Nc3ccc(F)cc3)n2)CCN(C(=O)OC2COC2)CC1 [Example 30-18, oxetan-3-yl 4-{4-carbamoyl-3-[(4-fluorophenyl)amino]-1H-pyrazol-1-yl}-4-(cyanomethyl)piperidine-1-carboxylate]
JAK1; [1]
  IC50: 2 nM
JAK2; [1]
  IC50: 44 nM

## CC(C)(C)OC(=O)N1CCC(CC#N)(n2cc(C(N)=O)c(Nc3ccc(C(=O)N4CCOCC4)c(F)c3)n2)CC1 [Example 9-24, tert-butyl 4-(4-carbamoyl-3-{[3-fluoro-4-(morpholin-4-ylcarbonyl)phenyl]amino}-1H-pyrazol-1-yl)-4-(cyanomethyl)piperidine-1-carboxylate]
JAK1; [1]
  IC50: 0.2 nM
JAK2; [1]
  IC50: 0.7 nM

## N#CCC1(n2cc(C(N)=O)c(Nc3ccnc(F)c3)n2)CCC(NCc2cccc(Cl)c2)CC1 (stereo not drawn) [Example 41-23, Cis or trans 1-{4-[(3-chlorobenzyl)amino]-1-(cyanomethyl)cyclohexyl}-3-[(2-fluoropyridin-4-yl)amino]-1H-pyrazole-4-carboxamide]
JAK1; [1]
  IC50: 46 nM
JAK2; [1]
  IC50: 1430 nM

## COCCCOC(=O)N1CC(CC#N)(n2cc(C(N)=O)c(Nc3ccccc3)n2)C1 [Example 30-61, 3-methoxypropyl 3-[4-carbamoyl-3-(phenylamino)-1H-pyrazol-1-yl]-3-(cyanomethyl)azetidine-1-carboxylate]
JAK1; [1]
  IC50: 37 nM
JAK2; [1]
  IC50: 603 nM

## N#CCC1(n2cc(C(N)=O)c(Nc3ccccc3)n2)CCN(C(=O)c2cccs2)CC1 [Example 34-14, 1-[4-(cyanomethyl)-1-(thiophen-2-ylcarbonyl)piperidin-4-yl]-3-(phenylamino)-1H-pyrazole-4-carboxamide]
JAK1; [1]
  IC50: 0.3 nM
JAK2; [1]
  IC50: 8 nM

## CC(C)Oc1cccc(N2CCC(CC#N)(n3cc(C(N)=O)c(Nc4ccc(F)cc4)n3)CC2)n1 [Example 3-15, 1-{4-(cyanomethyl)-1-[6-(1-methylethoxy)pyridin-2-yl]piperidin-4-yl}-3-[(4-fluorophenyl)amino]-1H-pyrazole-4-carboxamide]
JAK1; [1]
  IC50: 191 nM
JAK2; [1]
  IC50: > 1500 nM

## COC(=O)N1CCC(CC#N)(n2cc(C(N)=O)c(Nc3ccc(S(C)(=O)=O)cc3)n2)CC1 [Example 27-3, methyl 4-(4-carbamoyl-3-{[4-(methylsulfonyl)phenyl]amino}-1H-pyrazol-1-yl)-4-(cyanomethyl)piperidine-1-carboxylate]
JAK1; [1]
  IC50: 1 nM
JAK2; [1]
  IC50: 16 nM
